Holding throughout (format): cell-based
The target in one test is T1, human TLR9 (Homo sapiens, UniProt Q9NR96).
T1 construct: host or cells: HEK-Blue cells (HEK293-derived reporter line)
T1 sequence (Q9NR96 26-1032): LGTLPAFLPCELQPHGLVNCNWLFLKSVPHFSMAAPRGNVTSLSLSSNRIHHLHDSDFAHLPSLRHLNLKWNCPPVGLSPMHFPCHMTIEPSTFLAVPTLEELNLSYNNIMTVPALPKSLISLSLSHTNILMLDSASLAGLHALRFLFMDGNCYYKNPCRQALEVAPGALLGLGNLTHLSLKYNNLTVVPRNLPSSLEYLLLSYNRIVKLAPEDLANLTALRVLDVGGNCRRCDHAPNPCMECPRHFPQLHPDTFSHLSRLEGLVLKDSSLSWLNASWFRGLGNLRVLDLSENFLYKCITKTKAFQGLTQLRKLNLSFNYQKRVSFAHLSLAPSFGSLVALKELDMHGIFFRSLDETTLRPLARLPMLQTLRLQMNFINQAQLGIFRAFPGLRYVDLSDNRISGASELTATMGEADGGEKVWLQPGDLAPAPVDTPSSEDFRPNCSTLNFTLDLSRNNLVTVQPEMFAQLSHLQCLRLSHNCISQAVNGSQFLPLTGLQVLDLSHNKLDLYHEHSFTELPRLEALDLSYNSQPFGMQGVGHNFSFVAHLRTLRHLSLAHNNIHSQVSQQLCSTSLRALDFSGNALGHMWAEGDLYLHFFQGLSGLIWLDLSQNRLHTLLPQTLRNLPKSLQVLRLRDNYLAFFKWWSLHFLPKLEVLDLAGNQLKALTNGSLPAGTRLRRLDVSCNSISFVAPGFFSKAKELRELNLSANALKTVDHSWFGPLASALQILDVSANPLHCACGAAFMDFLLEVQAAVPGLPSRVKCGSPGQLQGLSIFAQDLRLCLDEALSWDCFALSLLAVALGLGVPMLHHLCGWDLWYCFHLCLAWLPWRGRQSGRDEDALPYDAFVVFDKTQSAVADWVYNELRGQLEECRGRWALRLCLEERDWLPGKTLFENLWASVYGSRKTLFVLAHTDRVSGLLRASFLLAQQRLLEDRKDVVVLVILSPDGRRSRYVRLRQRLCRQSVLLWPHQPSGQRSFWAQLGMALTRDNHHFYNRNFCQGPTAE
Briefly: TLR9 inhibition reporter assay (HEK-Blue cells, SEAP reporter, ODN2006 stimulation). The conditions noted are these: HEK-Blue cells overexpressing human TLR9, SEAP reporter, ODN2006 5 nM. Put shortly:
(§1)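 Agonists (final): TLR7 gardiquimod 7.5 μM; TLR8 R848 15.9 μM; TLR9 ODN2006 5 nM. HEK-Blue reporter cells, 30 min RT compound pre-incubation, 0.05 nM–50 μM dose range, 22 h at 37 °C, colorimetric SEAP detection medium. % inhibition relative to agonist+DMSO and known-inhibitor wells.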

For another test, the target named is T2, human TLR8 (Homo sapiens, UniProt Q9NR97).
T2 construct: host or cells: HEK-Blue cells (HEK293-derived reporter line)
T2 sequence (Q9NR97 27-1041): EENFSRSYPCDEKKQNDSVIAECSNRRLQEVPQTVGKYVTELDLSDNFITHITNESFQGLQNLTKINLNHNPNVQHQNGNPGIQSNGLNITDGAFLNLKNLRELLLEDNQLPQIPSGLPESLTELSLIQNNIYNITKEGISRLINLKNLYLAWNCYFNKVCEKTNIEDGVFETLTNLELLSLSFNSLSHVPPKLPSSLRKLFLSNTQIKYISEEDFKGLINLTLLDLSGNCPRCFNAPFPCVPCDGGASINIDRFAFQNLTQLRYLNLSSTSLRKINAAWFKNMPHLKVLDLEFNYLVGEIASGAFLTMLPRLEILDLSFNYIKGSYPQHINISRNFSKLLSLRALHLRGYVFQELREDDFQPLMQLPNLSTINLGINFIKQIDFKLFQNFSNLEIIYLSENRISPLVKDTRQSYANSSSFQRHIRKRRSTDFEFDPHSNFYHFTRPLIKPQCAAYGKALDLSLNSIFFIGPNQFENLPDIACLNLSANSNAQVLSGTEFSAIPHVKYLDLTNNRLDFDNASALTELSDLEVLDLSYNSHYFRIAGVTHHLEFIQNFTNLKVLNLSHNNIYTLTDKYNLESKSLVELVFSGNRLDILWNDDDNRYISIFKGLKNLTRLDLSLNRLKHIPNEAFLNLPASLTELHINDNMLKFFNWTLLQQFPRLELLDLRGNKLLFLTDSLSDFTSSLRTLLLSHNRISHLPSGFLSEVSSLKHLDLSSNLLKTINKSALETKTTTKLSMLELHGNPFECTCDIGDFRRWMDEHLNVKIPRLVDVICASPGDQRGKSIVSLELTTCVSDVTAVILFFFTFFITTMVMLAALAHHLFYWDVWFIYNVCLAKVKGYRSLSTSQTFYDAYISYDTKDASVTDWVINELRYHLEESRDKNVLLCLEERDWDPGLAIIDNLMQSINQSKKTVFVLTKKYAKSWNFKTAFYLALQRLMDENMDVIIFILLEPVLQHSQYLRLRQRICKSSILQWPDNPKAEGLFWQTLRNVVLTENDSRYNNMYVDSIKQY
Briefly: TLR8 inhibition reporter assay (HEK-Blue cells, SEAP reporter, R848 stimulation). The conditions noted are these: HEK-Blue cells overexpressing human TLR8, SEAP reporter, R848 15.9 μM. Put shortly: as §1

The next test has as its target T3, human TLR7 (Homo sapiens, UniProt Q9NYK1).
T3 construct: host or cells: HEK-Blue cells (HEK293-derived reporter line)
T3 sequence (Q9NYK1 27-1049): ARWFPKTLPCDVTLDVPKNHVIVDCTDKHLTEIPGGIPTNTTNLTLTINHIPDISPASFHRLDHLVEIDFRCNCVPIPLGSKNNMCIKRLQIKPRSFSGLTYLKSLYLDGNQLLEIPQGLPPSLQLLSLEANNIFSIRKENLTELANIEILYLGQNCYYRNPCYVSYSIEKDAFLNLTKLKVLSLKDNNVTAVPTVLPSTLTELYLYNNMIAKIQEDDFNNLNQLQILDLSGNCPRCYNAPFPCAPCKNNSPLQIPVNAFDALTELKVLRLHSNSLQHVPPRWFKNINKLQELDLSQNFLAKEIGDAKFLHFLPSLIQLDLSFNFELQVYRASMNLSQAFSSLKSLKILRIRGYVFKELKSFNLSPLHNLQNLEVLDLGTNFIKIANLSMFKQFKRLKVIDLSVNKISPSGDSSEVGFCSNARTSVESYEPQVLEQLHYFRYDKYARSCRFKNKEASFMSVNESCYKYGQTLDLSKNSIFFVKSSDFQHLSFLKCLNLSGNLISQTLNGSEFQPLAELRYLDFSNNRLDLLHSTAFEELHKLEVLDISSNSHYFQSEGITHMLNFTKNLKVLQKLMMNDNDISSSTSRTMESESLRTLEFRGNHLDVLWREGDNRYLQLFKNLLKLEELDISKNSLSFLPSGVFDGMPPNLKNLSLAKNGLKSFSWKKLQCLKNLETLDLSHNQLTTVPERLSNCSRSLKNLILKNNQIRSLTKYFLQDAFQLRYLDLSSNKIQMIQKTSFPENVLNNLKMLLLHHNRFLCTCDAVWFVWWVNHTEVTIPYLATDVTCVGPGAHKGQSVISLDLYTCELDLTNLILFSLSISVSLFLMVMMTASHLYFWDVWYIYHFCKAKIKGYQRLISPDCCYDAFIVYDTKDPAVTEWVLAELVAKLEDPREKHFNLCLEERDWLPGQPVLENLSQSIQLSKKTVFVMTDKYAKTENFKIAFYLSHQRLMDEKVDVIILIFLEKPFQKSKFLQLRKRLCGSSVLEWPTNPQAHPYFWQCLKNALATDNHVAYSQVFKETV
In words: TLR7 inhibition reporter assay (HEK-Blue cells, SEAP reporter, gardiquimod stimulation). The conditions noted are these: HEK-Blue cells overexpressing human TLR7, SEAP reporter, gardiquimod 7.5 μM. Put shortly: as §1

From US11739098B2 (BRISTOL-MYERS SQUIBB COMPANY, priority 2017, dated 2023) come the findings set out here.

A value given as a limit tells only on which side of the number the result lay.

As to `Cc1cc(-c2[nH]c3ccc(C4CCN(Cc5ncn(C)n5)CC4)cc3c2C(C)C)cn2nncc12` [Example 881, 6-(3-isopropyl-5-(1-((1-methyl-1H-1,2,4-triazol-3-yl)methyl)piperidin-4-yl)-1H-indol-2-yl)-4-methyl-[1,2,3]triazolo[1,5-a]pyridine], the IC50 on human TLR9 was 1000 to 50000 nM; against human TLR8 it was 100 to 1000 nM; at human TLR7, 1000 to 50000 nM.

Take `Cc1cc(-c2[nH]c3ccc(C4CCN(Cc5ccn(C)n5)CC4)cc3c2C(C)C)cn2nncc12` [Example 882, 6-(3-isopropyl-5-(1-((1-methyl-1H-pyrazol-3-yl)methyl)piperidin-4-yl)-1H-indol-2-yl)-4-methyl-[1,2,3]triazolo[1,5-a]pyridine]: the IC50 on human TLR9 lay within 1000 to 50000 nM; against human TLR8 it was 100 to 1000 nM; on human TLR7 it was 1000 to 50000 nM.

Take `Cc1cc(-c2[nH]c3ccc(C4CCN(Cc5cnn[nH]5)CC4)cc3c2C(C)C)cn2nnnc12` [Example 883, 6-(5-(1-((1H-1,2,3-triazol-5-yl)methyl)piperidin-4-yl)-3-isopropyl-1H-indol-2-yl)-8-methyltetrazolo[1,5-a]pyridine]: the IC50 against human TLR9 was 1000 to 50000 nM; against human TLR8 it was below 100 nM; against human TLR7 it was below 100 nM.

Regarding `Cc1cc(-c2[nH]c3ccc(C4CCN(Cc5ccn(C)n5)CC4)cc3c2C(C)C)cn2nnnc12` [Example 884, 6-(3-isopropyl-5-(1-((1-methyl-1H-pyrazol-3-yl)methyl)piperidin-4-yl)-1H-indol-2-yl)-8-methyltetrazolo[1,5-a]pyridine], the IC50 against human TLR9 was 1000 to 50000 nM; at human TLR8, below 100 nM; against human TLR7, below 100 nM.

As to `Cc1cc(-c2[nH]c3ccc(C4CCN(Cc5ncn(C)n5)CC4)cc3c2C(C)C)cn2nnnc12` [Example 885, 6-(3-isopropyl-5-(1-((1-methyl-1H-1,2,4-triazol-3-yl)methyl)piperidin-4-yl)-1H-indol-2-yl)-8-methyltetrazolo[1,5-a]pyridine], the IC50 on human TLR9 is 1000 to 50000 nM; against human TLR8, below 100 nM; against human TLR7 it was below 100 nM.

In the case of `Cc1cc2nnnn2cc1-c1[nH]c2ccc(C3CCN(Cc4ncn(C)n4)CC3)cc2c1C(C)C` [Example 886, 6-(3-isopropyl-5-(1-((1-methyl-1H-1,2,4-triazol-3-yl)methyl)piperidin-4-yl)-1H-indol-2-yl)-7-methyltetrazolo[1,5-a]pyridine], the IC50 is 1000 to 50000 nM on human TLR9, below 100 nM on human TLR8 and below 100 nM at human TLR7.

Regarding `Cc1cc2nnnn2cc1-c1[nH]c2ccc(C3CCN(Cc4ccn(C)n4)CC3)cc2c1C(C)C` [Example 887, 6-(3-isopropyl-5-(1-((1-methyl-1H-pyrazol-3-yl)methyl)piperidin-4-yl)-1H-indol-2-yl)-7-methyltetrazolo[1,5-a]pyridine], the IC50 at human TLR9 was 1000 to 50000 nM; on human TLR8, below 100 nM; at human TLR7 it was below 100 nM.

For the compound `Cc1nnn2ccc(-c3[nH]c4ccc(C5CCN(Cc6ccn(C)n6)CC5)cc4c3C(C)C)cc12` [Example 888, 5-(3-isopropyl-5-(1-((1-methyl-1H-pyrazol-3-yl)methyl)piperidin-4-yl)-1H-indol-2-yl)-3-methyl-[1,2,3]triazolo[1,5-a]pyridine], the IC50 at human TLR9 was 1000 to 50000 nM; against human TLR8, below 100 nM; against human TLR7, below 100 nM.

On to `Cc1nnn2ccc(-c3[nH]c4ccc(C5CCN(Cc6ncn(C)n6)CC5)cc4c3C(C)C)cc12` [Example 889, 5-(3-isopropyl-5-(1-((1-methyl-1H-1,2,4-triazol-3-yl)methyl)piperidin-4-yl)-1H-indol-2-yl)-3-methyl-[1,2,3]triazolo[1,5-a]pyridine], for which the 50% inhibitory concentration (IC50) against human TLR9 was 1000 to 50000 nM; against human TLR8, below 100 nM; at human TLR7, below 100 nM.

With `Cc1cc(-c2[nH]c3ccc(C4CCN(Cc5ncn(C)n5)CC4)cc3c2C(C)C)cc2cnnn12` [Example 890, 5-(3-isopropyl-5-(1-((1-methyl-1H-1,2,4-triazol-3-yl)methyl)piperidin-4-yl)-1H-indol-2-yl)-7-methyl-[1,2,3]triazolo[1,5-a]pyridine], the IC50 against human TLR9 is 1000 to 50000 nM; on human TLR8 it was below 100 nM; against human TLR7, below 100 nM.

Take `Cc1cc(-c2[nH]c3ccc(C4CCN(Cc5ccn(C)n5)CC4)cc3c2C(C)C)cc2cnnn12` [Example 891, 5-(3-isopropyl-5-(1-((1-methyl-1H-pyrazol-3-yl)methyl)piperidin-4-yl)-1H-indol-2-yl)-7-methyl-[1,2,3]triazolo[1,5-a]pyridine]: the results for the IC50 against human TLR9, against human TLR8 and at human TLR7 were 100 to 1000 nM, below 100 nM and below 100 nM, respectively.

In the case of `CCc1c(-c2ccnc3[nH]ncc23)[nH]c2ccc(C3CCN(Cc4cn[nH]n4)CC3)cc12` [Example 892, 4-(5-(1-((2H-1,2,3-triazol-4-yl)methyl)piperidin-4-yl)-3-ethyl-1H-indol-2-yl)-1H-pyrazolo[3,4-b]pyridine], the figures for the concentration for half-maximal inhibition (IC50) at human TLR9, against human TLR8 and against human TLR7 were 1000 to 50000 nM, below 100 nM and below 100 nM, respectively.
